# Source: patent US20160130577A1, “NUCLEOTIDE SEQUENCE MOTIFS DIRECTING NUCLEIC ACID LOCATION TO EXTRACELLULAR VESICLES” (FUNDACIÓN CENTRO NACIONAL DE INVESTIGACIONES …, priority 2012, published 2016)
# Assays:
# Jurkat T cells [1] = assay: Western blot of EVs for CD81 and cytochrome c (EV secretion, cell death); format: cell-based; conditions: anacardic acid versus DMSO
# Experimental: (§1) FIG. 13. Assessment of sumoylation inhibitor efficiency. (A) Western blot analysis of hnRNPA1 in T cells and their EVs. (B) Representative western blot showing the decrease in sumo-conjugated proteins in the presence of anacardic acid. Cells were incubated with anacardic acid (AA) or DMSO (control condition, CONT) and cell extracts were blotted for SUMO-1. (C) Representative western blot showing no changes in EV secretion and cell death in the presence of anacardic acid. Cells were incubated with anacardic acid (AA) or DMSO (CONT), and EV were purified by ultracentrifugation and blotted for CD81 and cytochrome c.
# (§2) To confirm whether the higher molecular weight of EVs hnRNPA2B1 was due to sumoylation, we cultured Jurkat T cells in the presence of the specific sumoylation inhibitor anacardic acid (AA). Briefly, cells were cultured with anacardic acid (100 μM) (Sigma) or 6 DMSO for 4 h at 37° C. Cells were then diluted 1:4 and incubated overnight. EVs and cells were resuspended in buffer 1 for western blotting or hnRNPA2B1 immunoprecipitation (FIG. 13B).
# Jurkat T cells [2] = assay: qPCR of miRNA levels in EVs from control or AA-treated cells; format: cell-based, human; conditions: anacardic acid 100 μM versus DMSO
# sumo-conjugated proteins = assay: Western blot of cell extracts for SUMO-1 (sumoylation inhibitor efficiency); format: cell-based, human; conditions: anacardic acid versus DMSO
# Experimental: as §1, §2
# hnRNPA2B1 sumoylation = assay: Western blot of hnRNPA2B1 molecular weight in EVs with sumoylation inhibitor; format: cell-based, human; conditions: anacardic acid 100 μM 4 h, then diluted 1:4 overnight; versus DMSO
# Experimental: as §2
# hnRNPA2B1 [3] = assay: hnRNPA2B1 IP-qPCR from EV lysates of control or AA-treated cells; format: cell-based, human; conditions: EV lysates from AA-treated versus control cells
# Experimental: as §2
# NUCL = target: T1, NUCL (Homo sapiens, UniProt P19338); assay: pull-down of EV extracts with biotinylated miRNA-coated streptavidin beads, mass spectrometry; format: binding; conditions: NUCL precipitated from EV extracts of human T lymphoblasts
# T1 construct: endogenous in cells; host or cells: extracellular vesicles from primary human T lymphoblasts
# Experimental: (§3) To analyze the molecular mechanism that controls the packaging of miRNAs presenting the motifs of the invention in EVs, a search was performed of the proteins present in EVs and which bind specifically to EVmiRNAs. For this purpose, extracts of isolated EVs from human T lymphoblasts were incubated in the presence of streptavidin beads coated with biotinylated EVmiRNA miR-198, or with biotinylated CLmiRNA miR-17. The analysis of EVs-coupled beads was performed by FACS. Briefly, Evs were obtained by ultracentrifugation and sucrose gradient flotation, resuspended in PBS and coupled to 4 μm aldehyde-sulfate beads (Invitrogen) overnight at room temperature in rotation. Beads were washed and blocked for 60 min at room temperature in 4% BSA in PBS. For intracellular staining, bead-bound Evs were permeabilized and fixed for 5 min at room temperature with 0.2% TX, 2% FA in PBS. Beads were incubated with antihnRNPA2B1 (Santa Cruz) or anti-CD81 (5A6, Santa Cruz) for 1 h at 4° C., washed and incubated with Alexa-488-goat-anti-mouse IgG (Invitrogen) for 30 min. Beads were acquired on a FACSCalibur (BD) and data were analyzed with FlowJo software (Tree Star). Negative controls were obtained with EV-coupled beads incubated with the secondary antibody. The proteins collected were identified by high performance mass spectrometry. As negative controls, uncoated or poly-A-coated streptavidin beads were used. Briefly, proteins were in-gel digested using a previously-described protocol. Briefly, 75 μl of beads were suspended in 25 μl sample buffer and loaded in 2.8-cm-wide wells of an SDS-PAGE gel. The run was stopped as soon as the front entered 3 mm into the resolving gel; the protein band was visualized by Coomassie staining, excised and digested overnight at 37° C. with 60 ng/μl trypsin at 5:1 protein:trypsin (w/w) ratio in 50 mM ammonium bicarbonate, pH 8.8 containing 10% ACN. The resulting tryptic peptides were extracted by 1 h incubation in 12 mM ammonium bicarbonate, pH 8.8. TFA was added to a final concentration of 1% and the peptides were finally desalted onto C18 Oasis cartridges and dried down. Peptide identification by mass spectrometry was performed as described. Briefly, the peptides were resuspended and injected onto a C-18 reversed phase (RP) nano-column (75 μm 2 I.D.×25 cm, Acclaim PepMap100, Thermo Scientific) and analyzed in a continuous acetonitrile gradient consisting of 0-43% B in 90 min, 50-90% B in 1 min (B=90% acetonitrile, 0.5% acetic acid). A flow rate of ca. 300 nL/min was used to elute peptides from the RP nano-column to an emitter nanospray needle for real time ionization and peptide fragmentation on an LTQ XP Orbitrap mass spectrometer (Thermo Fisher, San José, Calif., USA). An enhanced FT spectrum (30.000 resolution) followed by MS/MS spectra from most intense ten parent ions were performed along the chromatographic run (130 min). Dynamic exclusion was set at 30 s. The MS/MS raw files were searched against the Human Swissprot database (Uniprot release 14.0, 19929 sequence entries for human) supplemented with porcine trypsin and bacterial Streptavidin. SEQUEST results were validated using the probability ratio method and false discovery rates calculated using the refined method. Peptide and scan counting was performed assuming as positive events those with a FDR equal to or lower than 5%.
# HNRPC = target: T2, HNRPC (Homo sapiens, UniProt P07910); assay: as above; format: binding; conditions: HNRPC precipitated from EV extracts of human T lymphoblasts
# T2 construct: endogenous in cells; host or cells: extracellular vesicles from primary human T lymphoblasts
# Experimental: as §3
# hnRNPA1 = target: T3, hnRNPA1 (Homo sapiens, UniProt P09651); assay: as above; format: binding
# T3 construct: endogenous in cells; host or cells: extracellular vesicles from primary human T lymphoblasts
# Experimental: as §3
# RS3 = target: T4, RS3 (Homo sapiens, UniProt P23396); assay: as above; format: binding; conditions: RS3 precipitated from EV extracts of human T lymphoblasts
# T4 construct: endogenous in cells; host or cells: extracellular vesicles from primary human T lymphoblasts
# Experimental: as §3
# HNRPU = target: T5, HNRPU (Homo sapiens, UniProt Q00839); assay: as above; format: binding; conditions: HNRPU precipitated from EV extracts of human T lymphoblasts
# T5 construct: endogenous in cells; host or cells: extracellular vesicles from primary human T lymphoblasts
# Experimental: as §3
# RS4X = target: T6, RS4X (Homo sapiens, UniProt P62701); assay: as above; format: binding; conditions: RS4X precipitated from EV extracts of human T lymphoblasts
# T6 construct: endogenous in cells; host or cells: extracellular vesicles from primary human T lymphoblasts
# Experimental: as §3
# hnRNPA2B1 [4] = assay: as above; format: binding, human
# Experimental: To analyze the molecular mechanism that controls the packaging of miRNAs presenting the motifs of the invention in EVs, a search was performed of the proteins present in EVs and which bind specifically to EVmiRNAs. For this purpose, extracts of isolated EVs from human T lymphoblasts were incubated in the presence of streptavidin beads coated with biotinylated EVmiRNA miR-198, or with biotinylated CLmiRNA miR-17. The analysis of EVs-coupled beads was performed by FACS. Briefly, Evs were obtained by ultracentrifugation and sucrose gradient flotation, resuspended in PBS and coupled to 4 μm aldehyde-sulfate beads (Invitrogen) overnight at room temperature in rotation. Beads were washed and blocked for 60 min at room temperature in 4% BSA in PBS. For intracellular staining, bead-bound Evs were permeabilized and fixed for 5 min at room temperature with 0.2% TX, 2% FA in PBS. […] Beads were acquired on a FACSCalibur (BD) and data were analyzed with FlowJo software (Tree Star). […] Briefly, the peptides were resuspended and injected onto a C-18 reversed phase (RP) nano-column (75 μm 2 I.D.×25 cm, Acclaim PepMap100, Thermo Scientific) and analyzed in a continuous acetonitrile gradient consisting of 0-43% B in 90 min, 50-90% B in 1 min (B=90% acetonitrile, 0.5% acetic acid). […] SEQUEST results were validated using the probability ratio method and false discovery rates calculated using the refined method. […]
# Target sequence in this assay (P22626 15-353 limits assumed): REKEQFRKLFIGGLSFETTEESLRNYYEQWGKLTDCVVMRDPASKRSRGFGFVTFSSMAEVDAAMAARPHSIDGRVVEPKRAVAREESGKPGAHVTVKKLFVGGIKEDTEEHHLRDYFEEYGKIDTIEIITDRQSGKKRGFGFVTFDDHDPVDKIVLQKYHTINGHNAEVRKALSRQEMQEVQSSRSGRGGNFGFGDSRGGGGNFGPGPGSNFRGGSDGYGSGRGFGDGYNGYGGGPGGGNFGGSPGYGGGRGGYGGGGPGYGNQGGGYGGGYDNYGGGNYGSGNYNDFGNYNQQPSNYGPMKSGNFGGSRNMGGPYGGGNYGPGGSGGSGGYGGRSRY
# T3 sequence (P09651 whole entry): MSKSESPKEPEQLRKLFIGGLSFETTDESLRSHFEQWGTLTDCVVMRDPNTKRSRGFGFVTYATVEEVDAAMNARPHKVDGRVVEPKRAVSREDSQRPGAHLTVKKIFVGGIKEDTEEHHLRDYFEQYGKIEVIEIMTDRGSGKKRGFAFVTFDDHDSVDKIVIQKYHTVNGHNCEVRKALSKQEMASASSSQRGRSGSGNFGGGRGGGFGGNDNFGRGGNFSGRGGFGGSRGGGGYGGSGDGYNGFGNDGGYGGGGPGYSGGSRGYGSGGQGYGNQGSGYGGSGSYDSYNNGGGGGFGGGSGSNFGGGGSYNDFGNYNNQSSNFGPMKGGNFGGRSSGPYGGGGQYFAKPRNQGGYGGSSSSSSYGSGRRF
# T2 sequence (P07910 whole entry): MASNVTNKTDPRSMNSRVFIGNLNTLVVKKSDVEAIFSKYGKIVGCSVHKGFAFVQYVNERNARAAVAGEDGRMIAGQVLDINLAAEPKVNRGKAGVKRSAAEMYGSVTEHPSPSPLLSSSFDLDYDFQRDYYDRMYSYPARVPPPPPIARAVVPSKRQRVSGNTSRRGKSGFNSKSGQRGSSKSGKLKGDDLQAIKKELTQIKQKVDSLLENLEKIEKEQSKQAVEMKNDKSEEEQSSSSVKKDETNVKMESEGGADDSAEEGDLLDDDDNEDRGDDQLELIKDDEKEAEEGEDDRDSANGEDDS
# T1 sequence (P19338 whole entry): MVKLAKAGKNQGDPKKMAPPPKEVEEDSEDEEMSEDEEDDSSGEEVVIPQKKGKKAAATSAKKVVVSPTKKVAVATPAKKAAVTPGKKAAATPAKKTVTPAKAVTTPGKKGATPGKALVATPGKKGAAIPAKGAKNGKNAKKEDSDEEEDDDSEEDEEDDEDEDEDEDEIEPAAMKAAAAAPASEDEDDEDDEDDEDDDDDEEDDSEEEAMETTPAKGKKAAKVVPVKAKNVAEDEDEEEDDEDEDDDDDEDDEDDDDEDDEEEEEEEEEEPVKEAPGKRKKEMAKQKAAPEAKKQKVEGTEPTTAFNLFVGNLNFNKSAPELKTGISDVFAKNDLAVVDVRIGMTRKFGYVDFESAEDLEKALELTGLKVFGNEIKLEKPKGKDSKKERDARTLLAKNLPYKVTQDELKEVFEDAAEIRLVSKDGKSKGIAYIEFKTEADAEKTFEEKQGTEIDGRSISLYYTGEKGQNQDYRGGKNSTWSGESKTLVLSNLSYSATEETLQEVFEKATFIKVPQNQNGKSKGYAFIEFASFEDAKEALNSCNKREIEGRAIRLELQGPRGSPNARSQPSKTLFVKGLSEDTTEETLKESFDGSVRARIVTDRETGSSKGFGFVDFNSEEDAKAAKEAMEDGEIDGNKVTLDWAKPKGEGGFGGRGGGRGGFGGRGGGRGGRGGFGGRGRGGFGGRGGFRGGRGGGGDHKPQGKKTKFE
# T5 sequence (Q00839 whole entry): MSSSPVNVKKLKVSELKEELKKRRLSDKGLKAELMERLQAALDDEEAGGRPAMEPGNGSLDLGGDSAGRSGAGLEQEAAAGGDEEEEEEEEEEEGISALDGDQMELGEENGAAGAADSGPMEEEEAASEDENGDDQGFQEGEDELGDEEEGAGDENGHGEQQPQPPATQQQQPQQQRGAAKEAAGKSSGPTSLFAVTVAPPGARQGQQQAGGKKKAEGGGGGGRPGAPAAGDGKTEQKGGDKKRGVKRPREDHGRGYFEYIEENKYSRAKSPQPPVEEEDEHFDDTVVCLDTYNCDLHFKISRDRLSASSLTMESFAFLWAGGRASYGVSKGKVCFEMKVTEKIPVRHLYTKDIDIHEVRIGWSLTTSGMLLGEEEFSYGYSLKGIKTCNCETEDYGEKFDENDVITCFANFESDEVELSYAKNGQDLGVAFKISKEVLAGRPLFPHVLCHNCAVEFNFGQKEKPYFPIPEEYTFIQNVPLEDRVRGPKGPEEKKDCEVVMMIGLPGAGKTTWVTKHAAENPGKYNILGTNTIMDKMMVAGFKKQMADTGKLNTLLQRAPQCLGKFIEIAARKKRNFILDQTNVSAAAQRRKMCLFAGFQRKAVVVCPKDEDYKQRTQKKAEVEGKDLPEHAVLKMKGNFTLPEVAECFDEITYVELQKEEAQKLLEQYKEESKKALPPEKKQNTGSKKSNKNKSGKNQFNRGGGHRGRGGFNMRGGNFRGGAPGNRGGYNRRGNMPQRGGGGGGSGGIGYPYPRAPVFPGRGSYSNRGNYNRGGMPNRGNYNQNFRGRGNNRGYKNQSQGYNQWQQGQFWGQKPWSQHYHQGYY
Number of peptides identified by mass spectrometry (NUCL),Number of peptides identified by mass spectrometry (HNRPC),Number of peptides identified by mass spectrometry (hnRNPA1; hnRNPA1 precipitated from EV extracts of human T lymphoblasts),binding of hnRNPA1 (in words) (hnRNPA1; pull-down from EV extracts),Number of peptides identified by mass spectrometry (RS3),Number of peptides identified by mass spectrometry (HNRPU),Number of peptides identified by mass spectrometry (RS4X),binding of hnRNPA2B1 (in words) (hnRNPA2B1 [4]; pull-down from EV extracts),Compound,EV secretion (CD81 blot) (Jurkat T cells [1]),cell death (cytochrome c blot) (Jurkat T cells [1]),levels of miR-17 in EVs (Jurkat T cells [2]),levels of miR-18 in EVs (Jurkat T cells [2]),levels of miR-198 in EVs (Jurkat T cells [2]),sumo-conjugated proteins (SUMO-1 blot) (sumo-conjugated proteins),low-molecular weight hnRNPA2B1 band in EVs (hnRNPA2B1 sumoylation),miR-198 bound to hnRNPA2B1 (IP-qPCR) (hnRNPA2B1 [3]),Number of peptides identified by mass spectrometry (hnRNPA2B1 [4]; hnRNPA2B1 precipitated from EV extracts of human T lymphoblasts)
,,,,,,,,CCCCCCCCCCCCCCCc1cccc(O)c1C(=O)O [anacardic acid],no changes,no changes,did not change,did not change,reduced,decrease,could be readily detected,decreased binding,
8,0,0,no binding,0,0,0,no binding,poly-A,,,,,,,,,0
